Assays:
[1] = test system: renal fibroblast; conditions: Ponnusamy et al., 2015; cited from earlier work
[2] = test system: human spermatozoa; test: Protein tyrosine phosphorylation (sperm capacitation hallmark) by anti-phosphotyrosine western blot; format: cell-based
Description: For sperm incubations Biggers-Whitten-Whittingham (BWW) media described by Biggers J D et al. (1971) with slightly modifications was used. BBW-washed (BWW-W): 94.5 mM NaCl, 4.8 mM KCl, 1.7 mM CaCl2×2H2O, 1.17 mM KH2PO4, 1.22 mM MgSO4×7H2O, 20 mM HEPES. Non capacitation media (NC) contains all the component of BWW-washed plus 5.56 mM glucose and gentamycin 10 mg/mL. Capacitating media (CAP): contains all the component of NC plus 25 mM of HCO3 and 26 mg of Bovine Serum Albumin (BSA). All the media were balanced to a final pH 7.2-7.4
(§1) For sperm preparation, semen samples were collected by masturbation into sterile cups after 2-4 days of sexual abstinence. Samples were left to liquefy for up 2 hours at 37° C. to complete liquefaction prior to processing as described below. Only ejaculates whose semen parameters (total fluid volume, sperm concentration, motility and morphology) meet the (2010) normality criteria established by the WHO (2010) were processed. Ejaculates were submitted to discontinuous gradient centrifugation (Sperm Wash Gradient Set (45% and 90%)) for 20 min at 300 g at room temperature. […] The pellet was then resuspended in 1 mL of non-capacitating (NC) media and sperm concentration was determined using a Neubauer counting chamber under an optical microscope (×100 magnification). Due to the low number of spermatozoa obtained in each ejaculate, different ejaculates were pooled for different assessments. Finally, depending on experimental design spermatozoa were diluted in 1 ml of capacitating (CAP media containing 26 mg/mL of BSA and 25 mM of bicarbonate) or NC at a final concentration of 20×10^6/ml for 6 hours at 37° C. in presence or absence of the activator. YK-3-237 was added at the referred concentration at time 0 of incubation and keep along the time of sperm incubation.
For the Western blot analysis, spermatozoa were washed twice in phosphate-buffered saline (PBS) by centrifugation at 5000 g for 3 min at room temperature. The pellet was resuspended in 2×Laemmli sample buffer and incubated over night at 4° C. The samples were then centrifuged again (10000 g, 15 min, 4° C.) and the protein concentration was measured using a Bio-Rad DC Protein Assay. […] The phosphorylation state of the sperm proteins was analysed by overnight incubation at 4° C. with an anti-phosphotyrosine monoclonal antibody (mAb; Clone 4G10, Millipore; diluted 1:3000, v/v, in Tris-buffered saline-Tween 20 solution (TBST) containing 3% milk). The levels of sperm lipid peroxidation was evaluated by overnight incubation at 4° C. with an anti-4-hydroxynonenal (4HNE) antibody (pAb; Millipore; diluted 1:3000, v/v, in Tris-buffered saline-Tween 20 solution (TBST) containing 3% BSA. Membranes incubated with anti-phosphotyrosine were incubated for 60 min at room temperature with a horseradish peroxidase (HRP)-conjugated secondary anti-mouse antibody (diluted 1:5000, v/v, in TBST containing or 3% milk). Membranes incubated with anti-4HNE were incubated for 60 min at room temperature with a horseradish peroxidase (HRP)-conjugated secondary anti-goat antibody (diluted 1:5000, v/v, in TBST containing or 3% BSA). […]
Membranes' fluorescence was read with the BioRad FX-Pro-plus (Bio-Rad, Hemel Hempstead, UK). […] Western blotting regions of interest (ROIs) used for quantification are indicated by a vertical bar on the right of the respective western blot. […]

[3] = test system: human spermatozoa; test: Sperm viability by eosin-nigrosin staining; format: cell-based; conditions: 6 hours, capacitating conditions
Description: as §1, with “YK-3-237 was added at the referred concentration at time 0 of incubation and keep along the time of sperm incubation.” left out
For determination of sperm viability, the instructions by the WHO (2010) were followed, sperm viability was assessed by eosin-nigrosin staining technique. […] A total of 200 spermatozoa were counted in random fields under a bright-field microscope. […]

[4] = test system: breast cancer cells; conditions: Yi et al., 2013; cited from earlier work

Structure (SMILES): COc1ccc(/C=C/C(=O)c2cc(OC)c(OC)c(OC)c2)cc1B(O)O [YK-3-237, B-[2-methoxy-5-[(1E)-3-oxo-3-(3,4,5-trimethoxyphenyl)-1-propen-1-yl]phenyl]-boronic acid]
- effect on renal fibroblast and renal fibrogenesis [1]: promotes renal fibroblast activation and aggravates renal fibrogenesis
- tyrosine phosphorylation levels, co-incubation in presence of bicarbonate ([2]; 10 μM, 6 hours, bicarbonate present): increases the tyrosine phosphorylation levels
- tyrosine phosphorylation levels, complete capacitating media containing bicarbonate and BSA ([2]; 10 μM, 6 hours, compared with bicarbonate alone): further improved
- tyrosine phosphorylation levels in comparison with control ([2]; 6 hours co-incubation, capacitating media (HCO3 25 mM, BSA 26 mg/mL), 37° C., vs control 6 hours): tripled
- best concentration which enhanced tyrosine phosphorylation levels ([2]; 6 hours incubation in capacitating conditions (bicarbonate and BSA)): 10 µM
- increase of tyrosine phosphorylation levels ([2]; human sperm, capacitating conditions, FIGS. 1A, 2A and 3A): up to 3 folds
- effect on sperm viability ([3]; 10 μM): did not affect sperm viability
- effect on sperm viability, all concentrations tested ([3]; 37° C., different concentrations): none of the concentration tested had detrimental effect
- effect on breast cancer cells [4]: antiproliferative effect
